# Laboratory results: patent US20250195628A1, “ANALYTICAL METHOD AND THERAPEUTICAL AGENT FOR USE IN COMBINATION WITH L-ASPARAGINASE IN TUMOUR THERAPY” (Medizinische Hochschule Hannover, priority 2022, published 2025)
# Columns and labels:
# [1] = tested on: Cas9-expressing Jurkat cells; test: Cell viability after UBR2 knock-out by sgRNA and L-asparaginase treatment, Jurkat; type: cell-based, human; conditions: 100 U/L L-asparaginase, 48 h, versus sgAAVS1, FIG. 4A
# Description: (§1) Cas9-expressing Jurkat cells or T-ALL cells (CCRF-CEM) were treated with sgRNA that specifically knocked-out UBR2 (sgUBR2 #3, […], SEQ ID NO: 3) or control sgRNA directed against the safe harbor control locus AAVS1 (sgAAVS1, 5′-[…]-3′, SEQ ID NO: 4), and after knock-out of UBR2 cells were incubated under cell-culture conditions with 100 U/L L-asparaginase (Asp) or PBS as control agent (Vehicle). Cell viability was analysed by Trypan blue exclusion after 48 h of incubation.
# (§2) FIG. 4A for Jurkat cells, FIG. 4B for the T-ALL cells depict the cell viability normalized to the cell viability for Vehicle. […] P-values reflect the comparison of control inhibitor (AAVS1) and inhibitor of UBR2 (sgUBR2), calculated using a two-way ANOVA with Sidak's adjustments for multiple comparisons.
# T-ALL cells (CCRF-CEM) = test: Cell viability after UBR2 knock-out by sgRNA and L-asparaginase treatment, CCRF-CEM; type: cell-based, human; conditions: 100 U/L L-asparaginase, 48 h, versus sgAAVS1, FIG. 4B
# Description: as §1, §2
substance,measurement,setting,value
"sgUBR2 #3: sgRNA that specifically knocked-out UBR2, GAAACTTGAAATAGTCTAAA, SEQ ID NO: 3 (listed as DNA, chemistry not given here)",effect on sensitivity for L-asparaginase (cell viability normalized to Vehicle),[1],increased the sensitivity
same,effect on sensitivity for L-asparaginase (cell viability normalized to Vehicle),T-ALL cells (CCRF-CEM),increased the sensitivity
